Literature values, collected in US20240423911A1, “EMULSION COMPOSITION” (AstaReal Co., Ltd., priority 2018, published 2024).

Columns and labels:
[1] = Takahashi et al. 2004

CC1=C(/C=C/C(C)=C/C=C/C(C)=C/C=C/C=C(C)/C=C/C=C(C)/C=C/C2=C(C)C(=O)C(O)CC2(C)C)C(C)(C)CC(O)C1=O (stereo not drawn) [Astaxanthin, 3,3′-dihydroxy-β,β-carotene-4,4′-dione]
mutagenicity [1]: no mutagenicity has been observed
antioxidative activity relative to vitamin E (higher than that of vitamin E): approximately 1000 times
antioxidative activity relative to β-carotene (higher than that of β-carotene): ~40 times
